Source: paper PMC2902375 (Neuroreport, 2009)

Target: CACNA1H (Homo sapiens, UniProt O95180)
Assay: whole-cell voltage clamp, HEK-293
Assay type: cell-based

CACNA1H, sequence (O95180 whole entry): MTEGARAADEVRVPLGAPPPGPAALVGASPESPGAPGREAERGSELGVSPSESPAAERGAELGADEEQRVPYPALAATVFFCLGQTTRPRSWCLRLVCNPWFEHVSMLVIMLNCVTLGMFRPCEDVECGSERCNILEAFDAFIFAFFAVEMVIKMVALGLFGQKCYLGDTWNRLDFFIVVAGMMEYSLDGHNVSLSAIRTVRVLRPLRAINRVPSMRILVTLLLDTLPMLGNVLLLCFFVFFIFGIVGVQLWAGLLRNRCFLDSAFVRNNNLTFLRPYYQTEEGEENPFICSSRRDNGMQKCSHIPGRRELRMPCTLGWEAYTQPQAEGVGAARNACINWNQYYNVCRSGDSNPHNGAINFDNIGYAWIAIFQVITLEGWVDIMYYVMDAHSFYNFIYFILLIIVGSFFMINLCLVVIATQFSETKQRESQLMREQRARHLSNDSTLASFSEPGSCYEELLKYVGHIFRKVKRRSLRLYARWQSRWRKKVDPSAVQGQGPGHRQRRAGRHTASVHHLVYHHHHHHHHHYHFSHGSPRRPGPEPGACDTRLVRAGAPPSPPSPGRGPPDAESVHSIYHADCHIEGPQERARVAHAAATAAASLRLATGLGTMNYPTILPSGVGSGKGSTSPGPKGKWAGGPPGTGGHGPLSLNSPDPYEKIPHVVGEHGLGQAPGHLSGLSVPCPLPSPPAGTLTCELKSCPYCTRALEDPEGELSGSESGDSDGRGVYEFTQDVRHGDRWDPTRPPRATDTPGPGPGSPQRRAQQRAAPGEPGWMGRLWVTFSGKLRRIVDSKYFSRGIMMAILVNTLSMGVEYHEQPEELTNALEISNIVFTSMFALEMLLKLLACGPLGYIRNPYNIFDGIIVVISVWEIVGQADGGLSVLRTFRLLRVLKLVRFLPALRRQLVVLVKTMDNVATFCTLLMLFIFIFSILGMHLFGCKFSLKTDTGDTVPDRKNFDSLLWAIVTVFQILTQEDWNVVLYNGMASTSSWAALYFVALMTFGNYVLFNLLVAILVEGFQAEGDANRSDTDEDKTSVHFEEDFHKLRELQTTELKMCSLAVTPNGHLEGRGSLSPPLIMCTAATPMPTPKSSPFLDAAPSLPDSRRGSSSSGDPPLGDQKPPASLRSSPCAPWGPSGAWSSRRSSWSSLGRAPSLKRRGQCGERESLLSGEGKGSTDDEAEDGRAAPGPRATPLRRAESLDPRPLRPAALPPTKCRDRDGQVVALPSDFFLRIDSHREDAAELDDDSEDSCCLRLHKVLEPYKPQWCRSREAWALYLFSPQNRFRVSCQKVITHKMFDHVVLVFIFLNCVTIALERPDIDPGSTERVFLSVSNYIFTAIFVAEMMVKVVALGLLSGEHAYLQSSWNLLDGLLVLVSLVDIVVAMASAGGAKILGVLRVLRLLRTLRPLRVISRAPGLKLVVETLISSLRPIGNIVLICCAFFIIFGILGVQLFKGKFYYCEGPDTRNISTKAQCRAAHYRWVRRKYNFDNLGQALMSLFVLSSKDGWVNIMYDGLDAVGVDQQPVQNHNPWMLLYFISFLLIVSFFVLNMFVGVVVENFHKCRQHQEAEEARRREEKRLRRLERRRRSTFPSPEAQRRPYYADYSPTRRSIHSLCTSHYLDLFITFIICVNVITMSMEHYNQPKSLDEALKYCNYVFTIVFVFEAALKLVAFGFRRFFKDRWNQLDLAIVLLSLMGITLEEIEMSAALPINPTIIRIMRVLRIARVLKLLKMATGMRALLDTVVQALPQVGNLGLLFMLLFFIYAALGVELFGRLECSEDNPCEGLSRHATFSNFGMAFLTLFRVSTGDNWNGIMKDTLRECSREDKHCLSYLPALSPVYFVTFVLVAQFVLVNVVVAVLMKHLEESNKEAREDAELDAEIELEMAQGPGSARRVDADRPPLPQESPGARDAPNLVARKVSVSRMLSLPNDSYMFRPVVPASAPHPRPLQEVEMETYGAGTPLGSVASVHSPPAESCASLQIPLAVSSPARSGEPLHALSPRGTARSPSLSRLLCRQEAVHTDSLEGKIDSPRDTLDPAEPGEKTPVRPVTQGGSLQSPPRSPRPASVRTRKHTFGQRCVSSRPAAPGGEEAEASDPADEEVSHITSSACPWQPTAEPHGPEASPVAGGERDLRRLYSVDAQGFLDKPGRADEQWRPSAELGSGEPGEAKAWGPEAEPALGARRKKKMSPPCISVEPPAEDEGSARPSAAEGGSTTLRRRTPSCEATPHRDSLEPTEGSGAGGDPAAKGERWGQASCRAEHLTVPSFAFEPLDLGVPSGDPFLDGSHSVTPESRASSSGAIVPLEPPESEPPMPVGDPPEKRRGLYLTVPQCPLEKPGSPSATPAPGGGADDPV

IC50: 3 nM
Structure (SMILES): Fc1ccc(CN(CC(F)(F)F)C2CCN(CCCc3c[nH]c4ccc(Cn5cncn5)cc34)CC2)cc1 [TTA-I1, N-(4-fluorobenzyl)-1-{3-[5-(1H-1,2,4-triazol-1-ylmethyl)-1H-indol-3-yl]propyl}-N-(2,2,2-trifluoroethyl)piperidin-4-amine]
